{"source": "patent US11291684B2", "about": "“Treatment of glaucoma” (TX MEDIC AB, priority 2017, dated 2022)", "key": {"[1]": {"tested_on": "trabecular meshwork (TM) scarring", "test": "Trabecular meshwork scarring: laminin and fibronectin immunohistochemistry in the angle", "type": "in vivo, Sprague Dawley rats", "conditions": "rat TGF-β glaucoma model, day 28, vs saline", "from_the_text": "Measured End-Points • IOP twice weekly throughout study from day 0 to day 28; • Immunohistochemistry for counting RGC that are immunoreactive for brain-specific homeobox/POU domain protein 3A (Brn3a) at day 28 (RGC survival); • Immunohistochemistry for laminin and fibronectin to evaluate scarring in the trabecular meshwork at day 28 in Groups 1 and 2; • Anterior segment and OCT imaging at day 28 to examine the angle and the thickness of the retinal nerve fiber layer comprising RGC axons; and • Body weight at day 28. […]\nAfter immunofluorescence staining, sections were viewed on a Zeiss Axioplan 2 epi-fluorescent microscope (Carl Zeiss Ltd) and images captured using the same exposure times for each antibody using a Zeiss AxioCam HRc. IHC was quantified according to the methods previously described. Briefly, the region of interest used for quantitation of TM fibrosis was defined by a quadrant of the same prescribed size for all eyes/treatments within the TM, and ECM deposition was quantified within this defined quadrant of the TM and the % immunofluorescent pixels above a standardized background threshold calculated using ImageJ software (National Institutes of Health, USA). […] Images were assigned randomized numbers to ensure blinding of treatment groups during quantification by the assessor."}, "[2]": {"tested_on": "retinal nerve fiber layer (RNFL)", "test": "OCT analysis of retinal nerve fiber layer in TGF-β-induced glaucoma model", "type": "in vivo, Sprague Dawley rats", "conditions": "rat TGF-β glaucoma model; day 28", "description": "Glaucoma was induced in adult male Sprague Dawley rats by repeat twice weekly intracameral (IC) injections of transforming growth factor-β (TGF-β) to increase intraocular pressure (IOP). Sustained increases in IOP (after two weeks) leads to death of retinal ganglion cells (30-40%). Dextran sulfate (Tikomed AB, Sweden, WO 2016/076780) was administered at 15 mg/kg by daily subcutaneous injection from […] to assess RGC protection compared to controls.\nMeasured End-Points • IOP twice weekly throughout study from day 0 to day 28; • Immunohistochemistry for counting RGC that are immunoreactive for brain-specific homeobox/POU domain protein 3A (Brn3a) at day 28 (RGC survival); • Immunohistochemistry for laminin and fibronectin to evaluate scarring in the trabecular meshwork at day 28 in Groups 1 and 2; • Anterior segment and OCT imaging at day 28 to examine the angle and the thickness of the retinal nerve fiber layer comprising RGC axons; and • Body weight at day 28.\nOptical coherence tomography allows in vivo measuring of retinal thickness with RNFL being a surrogate measure of RGC density. OCT retinal nerve fiber layer analysis was performed at day 28 on all rats while under inhalation anesthesia using a Spectralis HRA3 confocal scanning laser ophthalmoscope (Heidelberg Engineering). […] In-built software was used to segment the images and quantify the RNFL thickness."}}, "data": [{"substance": "dextran sulfate", "values": [{"measurement": "levels of immunoreactive laminin in the angle", "setting": "[1]; P<0.001", "value": "significantly reduced"}, {"measurement": "levels of immunoreactive fibronectin in the angle", "setting": "[1]; P<0.01", "value": "significantly reduced"}, {"measurement": "RNFL (OCT) compared to saline treatment", "setting": "[2]", "value": "preserved"}]}]}
